Results reported in patent US8450300B2 (priority 2009, dated 2013).
“Also recorded” adds a separate entry of the source. Like-named read-outs stand apart in the source and are kept apart here.

What was measured:
[1] = Multi-dose pharmacokinetics 500 mg TID, 13 doses; assay type: in vivo, human; conditions: for AUC: Day 5 (13 doses)
Experimental: The pharmacokinetics of multiple oral doses of CEM-102 (sodium fusidate) 500 mg tablets in healthy subjects was evaluated. Subjects were randomized in a 3:1 ratio and received either CEM-102 500 mg (2×250 mg; n=18) or placebo tablets TID (n=6) for 4.5 days for a total of 13 doses.
Blood samples for assay of plasma concentrations of CEM-102 and placebo were collected pre-dose on Day 1 and at 24, 48, 72, and 96 hours. Samples were also collected at the following times after the morning dose on Day 5: 0.5, 1, 1.5, 2, 2.5, 3, 3.5, 4, 6, 8, 12, 16, 24, 36, and 48 hours.
Plasma concentrations of CEM-102 were assayed at MicroConstants, Inc. in San Diego, Calif., USA using a validated LC/MS/MS method with a lower limit of quantitation (LLOQ) of 20.0 ng/mL.

[2] = Single oral dose bioavailability study, fed/fasted crossover, plasma fusidic acid; conditions: human, in vivo, 500 mg, 500 mg single oral dose; for AUC(0-t): read-out: AUC0-t, geometric mean (CV %); for AUC(0-inf): read-out: AUCinf, geometric mean (CV %); for Cmax: read-out: Cmax, geometric mean (CV %); for half-life: read-out: t1/2, arithmetic mean ± SD (converted); for AUC: read-out: total exposure (AUC)
Experimental: This was a single-center, Phase 1, double-blind, randomized, 3 period, fed/fasted crossover bioequivalence study designed to evaluate the relative bioavailability and safety and tolerability of a single oral dose of CEM-102 500 mg compared to Fucidin® 500 mg in healthy subjects.
Subjects were randomized in equal numbers to the 4 treatment sequences (Table 3).
Study Period 1, 2, and 3 (Days 1, 15, and 29): One dose of study drug 500 mg (2×250 mg) of CEM-102 or Fucidin® was given at 8:00 AM (˜30 minutes). On Day 1 of Study Periods 1 and 2 (Days 1 and 15), subjects fasted overnight for at least 10 hours prior to dosing. On Day 1 of Study Period 3 (Day 29), subjects were given a high fat caloric meal which was to be entirely consumed within 30 minutes prior to study drug administration.
Blood samples for assay of plasma concentrations were collected on Days 1, 15 and 29 at pre-dose and 0.5, 1, 1.5, 2, 2.5, 3, 3.5, 4, 6, 8, 12, 16, 24, 36, and 48 hours after the dose. Plasma concentrations were assayed at MicroConstants, Inc. in San Diego, Calif. using a validated liquid chromatography with dual tandem mass spectrometry (LC/MS/MS) method with a lower limit of quantitation (LLOQ) of 20.0 ng/mL

[3] = Dose escalation study, single/multiple dose and loading dose regimens: safety and tolerability; assay type: in vivo
Experimental: The pharmacokinetics (PK), safety, and tolerability of single and multiple doses of CEM-102 (sodium fusidate) were evaluated in a single-center, Phase 1, double-blind, randomized, placebo-controlled, dose-escalating study in 32 healthy adult subjects enrolled in 4 dosage groups (550, 1100, 1650, and 2200 mg). In each cohort, six subjects were to receive CEM-102 and two were to receive placebo in a single dose (Period 1) and then multiple doses BID for a total of 11 doses over 5.5 days (Period 2). The two dosing periods were separated by a seven-day washout period between the single dose in Period 1 and the first dose in Period 2.
Dosing proceeded as planned for Cohorts 1 to 3; however, Cohort 4 received only the single dose of 2200 mg (Period 1), because dose-limiting gastrointestinal intolerance was observed after multiple doses of 1650 mg BID in Cohort 3. Period 2 for Cohort 4 evaluated an initial loading dose regimen, and a second loading dose regimen was evaluated in an additional cohort (Cohort 5) per a protocol amendment.
The protocol was amended for assessment of the safety, tolerability, and PK of front-loaded dose regimens comprised of a higher dose of CEM-102 on Day 1 followed by lower doses for the subsequent 6.5 days. All loading dose regimens employed multiple doses lower than the maximum tolerated dose (MTD) established in the first part of the study (1650 mg administered as multiple doses).
The loading dose regimens assessed were 1100 mg BID on Day 1 and 550 mg BID on the following 6.5 days in Period 2 of Cohort 4 and 1650 mg BID on Day 1 and 825 mg BID on the following 6.5 days in Cohort 5.

[4] = tested on: 217 S. aureus Canadian isolates; assay type: cell-based; conditions: 217 Canadian isolates
Experimental: CLSI broth microdilution (BMD) and anaerobic agar dilution (AD) methods were performed. Modifications of standard test methods included adding 10% human serum, adjusting the medium pH to 5, 6, and 8, and synergy was assessed by the checkerboard method.

[5] = after the single dose of 2200 mg

In the case of `CC(=O)O[C@H]1C[C@@]2(C)[C@@H](C[C@@H](O)[C@H]3[C@@]4(C)CC[C@@H](O)[C@@H](C)[C@@H]4CC[C@@]32C)/C1=C(\CCC=C(C)C)C(=O)O` [CEM-102, Sodium fusidate], the trough level ([1]; 500 mg TID, prior to dosing on Day 5) is reported as 105 µg/mL, the “Cmaxss, geometric mean” value ([1]; human, in vivo, 500 mg) is reported as 145680 ng/mL and the AUC ([1]; human, in vivo, 500 mg, 500 mg TID, read-out: AUC0-tss, geometric mean) is reported as 3560 µg·h/mL. The AUC ([1]; human, in vivo, 500 mg, 500 mg TID, read-out: AUC0-τss, geometric mean) was 1030 µg·h/mL, the AUC(0-t) ([2]; fasting) was 300 µg·h/mL and the AUC(0-inf) ([2]; fasting) was 318 µg·h/mL. The Cmax ([2]; fasting) was 27400 ng/mL, the half-life ([2]; fasting) was 11.8 ± 2.2 h and the AUC ([2]; fasting) was roughly 318 µg·h/mL. The AUC(0-t) ([2]; fed) was 269 µg·h/mL, the AUC(0-inf) ([2]; fed) was 285 µg·h/mL and the Cmax ([2]; fed) was 21200 ng/mL. For the same molecule, the half-life ([2]; fed) was 11.5 ± 2.75 h, the AUC ([2]; fed) was roughly 285 µg·h/mL and the “maximum tolerated dose (MTD)” value ([3]; administered as multiple doses) was 1650 mg. The subjects reporting nausea ([3]; after multiple doses, all cohorts) was 9 subjects, the “changes in physical examinations, vital signs, ECGs, or laboratory parameters” value ([3]; after single doses) was “no clinically significant changes” and the “subjects with nausea alone” value [3, 5] was 2. For the same molecule, the “subjects with nausea and vomiting” value [3, 5] was 1 subject, the safety and tolerability ([3]; doses up to 1650 mg BID for 5.5 days) was “safe and generally well tolerated” and the “Adverse Event (treatment-emergent, per subject and day)” value ([3]; loading dose regimen 1100/550 mg) was “Urinary; also recorded: Nausea; also recorded: Constipation”. For the same molecule, the tolerability ([3]; loading dose regimens 1100/550 mg and 1650/825 mg, total 7.5 days) was “very well tolerated”, the “Adverse Event (treatment-emergent, per subject and day)” value ([3]; multiple dose 550 mg BID cohort, blinded listing) was “Nausea; also recorded: Epigastric pain; also recorded: Dizziness; also recorded: Elevated BP; also recorded: Headache; also recorded: Tachycardia; also recorded: Pharyngitis; also recorded: Hoarseness; also recorded: Sore throat” and the “Adverse Event (treatment-emergent, per subject and day)” value ([3]; multiple dose 1100 mg BID cohort, blinded listing) was “Heartburn; also recorded: Constipation; also recorded: Skin Irritation; also recorded: Nausea; also recorded: Dizziness; also recorded: Viral URI”. For the same molecule, the subjects reporting nausea ([3]; multiple doses 550 mg BID) was 2 subjects, the subjects reporting nausea ([3]; multiple doses 1100 mg BID) was 2 subjects and the subjects reporting nausea ([3]; multiple doses 1650 mg BID) was 5 subjects. For the same molecule, the subjects with vomiting ([3]; multiple doses 1650 mg BID) was 4 subjects, the “Adverse Event (treatment-emergent, per subject and day)” value ([3]; single dose 1650 mg) was “None” and the “Adverse Event (treatment-emergent, per subject and day)” value ([3]; single dose 2200 mg) was “Nausea; also recorded: Vomiting; also recorded: Abdomen distention”. For the same molecule, the “gastrointestinal AEs” value ([3]; single dose, 550, 1100 or 1650 mg cohorts) was “no gastrointestinal AEs”, the tolerability ([3]; single doses up to 2200 mg) was “safe and well tolerated” and the “changes in physical examinations, vital signs, ECGs, or laboratory parameters” value ([3]; single doses up to 2200 mg, multiple doses up to 1650 mg for 5.5 days, or loading dose regimens for 7.5 days) was “no clinically significant changes”. For the same molecule, the “overall safety and tolerability” value ([3]; whole study) was “safe and generally well tolerated”, the “serious or life-threatening adverse events” value ([3]; whole study) was “No serious or life-threatening adverse events” and the “isolates with MICs of ≧2.0 μg/mL (classified as resistant)” value [4] was 6.5%.
